The record followed here is US6984639B2, “Heterocyclic ketone and thioester compounds and uses” (GPI NIL Holdings, Inc., priority 1996, dated 2006).

Where two headings read alike, the source gives them in different places.

Test [1] relates to MPTP lesioning of dopaminergic neurons in mice. As to the kind of experiment: MPTP Model of Parkinson's Disease. Format: in vivo. The following applies: test compound 4 mg/kg s.c.; MPTP 30 mg/kg i.p. for 5 days; CD1 mice; striatum, 18 days following MPTP. As for the experimental part:
MPTP lesioning of dopaminergic neurons in mice was used as an animal model of Parkinson's Disease. Four week old male CD1 white mice were dosed i.p. with 30 mg/kg of MPTP for 5 days. Test compounds (4 mg/kg), or vehicle, were administered s.c. along with the MPTP for 5 days, as well as for an additional 5 days following cessation of MPTP treatment. At 18 days following MPTP treatment, the animals were sacrificed and the striata were dissected and homogenized. Immunostaining was performed on saggital and coronal brain sections using anti-tyrosine hydroxylase […] to quantitate survival and recovery of dopaminergic neurons.
The results of these experiments are presented in TABLE IV under the column “% TH recovery”.

The test system of test [2] is cultured chick sensory neurons from dorsal root ganglia. Put plainly: Chick Dorsal Root Ganglion Cultures and Neurite Outgrowth. It counts as cell-based. The following applies: for EC50: neurite outgrowth, 48 hours after drug treatment, from dose-response curves, read-out: ED50 (the source's name). As to the method:
Dorsal root ganglia were dissected from chick embryos of ten day gestation. Whole ganglion explants were cultured on thin layer Matrigel-coated 12 well plates with Liebovitz L15 plus high glucose media supplemented with 2 mM glutamine and 10% fetal calf serum, and also containing 10 μm cytosine β-D arabinofuranoside (Ara C) at 37° C. in an environment containing 5% CO2. Twenty-four hours later, the DRGs were treated with various concentrations of nerve growth factor, immunophilin ligands or combinations of NFG plus drugs. Forty-eight hours after drug treatment, the ganglia were visualized under phase contrast or Hoffman Modulation contrast with a Zeiss Axiovert inverted microscope. Photomicrographs of the explants were made, and neurite outgrowth was quantitated. Neurites longer than the ORG diameter were counted as positive, with total number of neurites quantitated per each experimental condition. Three to four DRGs are cultured per well, and each treatment was performed in duplicate.
Dose-response curves were generated from which ED50 values were obtained.

On to `CC(C)(C)C(=O)C(=O)N1CCCCC1C(=O)C(CCc1ccccc1)CCc1ccccc1` (stereo not shown) [Compound 65], for which, in test [1], the “% TH recovery” value is listed as 23%.

Turning to “4-Phenyl-1-butyl (2S)-1-(3,3-dimethyl-1,2-dioxopentyl)-2-pyrrolidinecarbothioate [Compound 30]”, the EC50 in test [2] turned out to be 0.9 nM. Besides, the “% TH recovery” value in test [1] was 48%.

As to “3-Phenyl-1-propyl (2S)-1-(2-cyclohexyl-1,2-dioxoethyl)-2-pyrrolidinecarbothioate [Compound 28]”, the “% TH recovery” value in test [1] is 52%.

On to “2-Phenyl-1-ethyl 1-(2-phenyl-1,2-dioxoethyl)-2-piperidinecarbothioate [Compound 14]”, for which the EC50 in test [2] is 0.9 nM. The “% TH recovery” value in test [1] worked out at 48%.

As to `CCC(C)(C)C(=O)C(=O)N1CCCC1C(=O)SCc1csc2ccccc12` (stereo not shown) [Compound 11], in test [2], the EC50 turned out to be 0.36 nM. Also, the “% TH recovery” value in test [1] came out at 53%.

“2-Phenyl-1-ethyl 1-(3,3-dimethyl-1,2-dioxopentyl)-2-piperidinecarbothioate [Compound 10]”: the “neurite outgrowth in sensory neurons (photomicrograph)” value in test [2] (10 pM), in test [2] (1 nM) and in test [2] (100 nM) was “promoting neurite outgrowth” throughout. The EC50 in test [2] was 0.8 nM. The “% TH recovery” value in test [1] amounted to 54%.

Consider “3,3-Diphenyl-1-propyl (2S)-1-(3,3-dimethyl-1,2-dioxopentyl)-2-pyrrolidinecarbothioate [Compound 32]”, for which, in test [1], the “% TH recovery” value was determined as 56%.

On to “3-(1-Naphthyl)-1-propyl (2S)-1-(3,3-dimethyl-2-oxopentanoyl)-2-pyrrolidinecarbothioate [Compound 43]”, for which the “% TH recovery” value in test [1] amounted to 50%.

In the case of “3-(1-Naphthyl)-1-propyl 1-(3,3-dimethyl-1,2-dioxopentyl)piperidine-2-carbothioate [Compound 40]”, the “% TH recovery” value in test [1] was found to be 25%.

With `O=C(C(=O)N1CCC[C@H]1C(=O)CCCCc1ccccc1)C1CCCCC1` [Compound 62, (2S)-2-(1-Oxo-5-phenyl)pentyl-1-(2-Cyclohexyl-1,2-dioxoethyl)pyrrolidine], the EC50 in test [2] (Gallus gallus, Neuron) turned out to be 5 nM. Further, in test [1], the “% TH recovery” value was found to be 38%.

On to “3-(para-Methoxyphenyl)-1-propyl (2S)-1-(3,3-dimethyl-1,2-dioxopentyl)-2-pyrrolidinecarbothioate [Compound 34]”, for which the EC50 in test [2] was 0.011 nM. Also, the “% TH recovery” value in test [1] was determined as 37.32%.

For “2-Phenyl-1-ethyl (2S)-1-(2-cyclohexyl-1,2-dioxoethyl)-2-pyrrolidinecarbothioate [Compound 12]”, the EC50 in test [2] was found to be 0.025 nM.

Take `CCC(C)(C)C(=O)C(=O)N1CCC[C@H]1C(=O)CCCCc1ccccc1` [Compound 1, (2S)-3,3-dimethyl-1-[2-(5-phenylpentanoyl)pyrrolidinyl]pentane-1,2-dione]: the “neurite outgrowth in sensory neurons (photomicrograph)” value in test [2] (10 pM), in test [2] (1 nM) and in test [2] (1 μM) was “promoting neurite outgrowth” each time. Further, the EC50 in test [2] came to 0.4 nM. The “% TH recovery” value in test [1] is 23%.

Turning to `CCC(C)(C)C(=O)C(=O)N1CCC[C@H]1C(=O)CCCC(c1ccc(F)cc1)c1ccc(F)cc1` [Compound 66, (2S)-2-[5,5-di(4-Fluorophenyl)pentanoyl]-1-(3,3 dimethyl-1,2-pentanedione)pyrrolidine], in test [1], the “% TH recovery” value stood at 25%.

For the compound “2-Phenyl-1-ethyl (2S)-1-(3,3-dimethyl-1,2-dioxopentyl)-2-pyrrolidinecarbothioate [Compound 9]”, the EC50 in test [2] turned out to be 0.5 nM. Also, in test [1], the “% TH recovery” value is reported as 61%.

As for “2,2-Diphenylethyl (2S)-1-(3,3-dimethyl-2-oxopentanoyl)-2-pyrrolidinecarbothioate [Compound 44]”, the “% TH recovery” value in test [1] is 28%.

Take “3,3-Diphenylpropyl 1-(3,3-dimethyl-2-oxopentanoyl)-2-piperidinecarbothioate [Compound 46]”: the “% TH recovery” value in test [1] came out at 62%.
